The results in this text go back to ChEMBL document CHEMBL1131507, “Arylpiperazines with serotonin-3 antagonist activity: a comparative molecular field analysis” (J Med Chem, 1998).

This experiment has as its target T1, Serotonin 3 (5-HT3) receptor (Rattus norvegicus, UniProt P35563+Q9JJ16).
T1 sequence (P35563 whole entry): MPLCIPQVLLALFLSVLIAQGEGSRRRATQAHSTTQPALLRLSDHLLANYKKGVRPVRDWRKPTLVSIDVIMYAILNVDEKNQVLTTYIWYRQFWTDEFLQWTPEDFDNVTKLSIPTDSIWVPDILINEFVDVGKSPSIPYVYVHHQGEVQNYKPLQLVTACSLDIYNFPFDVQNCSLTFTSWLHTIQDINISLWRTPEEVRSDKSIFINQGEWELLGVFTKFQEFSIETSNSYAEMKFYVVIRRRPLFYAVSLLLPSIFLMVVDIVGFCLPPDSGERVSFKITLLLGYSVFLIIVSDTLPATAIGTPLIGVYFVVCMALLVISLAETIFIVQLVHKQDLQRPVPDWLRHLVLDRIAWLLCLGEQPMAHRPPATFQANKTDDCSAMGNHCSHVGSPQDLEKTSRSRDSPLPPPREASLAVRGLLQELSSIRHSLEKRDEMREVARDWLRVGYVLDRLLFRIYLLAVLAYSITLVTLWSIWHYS
T1 sequence (Q9JJ16 whole entry): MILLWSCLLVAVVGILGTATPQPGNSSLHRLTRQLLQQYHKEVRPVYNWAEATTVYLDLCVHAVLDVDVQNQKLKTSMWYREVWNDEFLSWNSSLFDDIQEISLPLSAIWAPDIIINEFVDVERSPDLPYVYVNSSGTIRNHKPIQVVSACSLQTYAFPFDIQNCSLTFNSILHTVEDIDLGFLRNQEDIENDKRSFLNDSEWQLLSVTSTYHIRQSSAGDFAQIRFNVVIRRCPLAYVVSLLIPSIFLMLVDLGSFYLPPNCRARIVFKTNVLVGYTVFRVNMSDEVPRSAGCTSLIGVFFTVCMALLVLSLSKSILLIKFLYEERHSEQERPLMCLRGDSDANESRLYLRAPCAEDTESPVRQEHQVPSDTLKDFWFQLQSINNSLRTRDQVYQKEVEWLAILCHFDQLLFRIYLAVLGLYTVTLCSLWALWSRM
The experiment can be described thus: Rat 5-hydroxytryptamine 3 receptor (5-HT3) antagonist. It counts as functional.

Structures are written as SMILES.

The term Ki denotes a measure of affinity in units of concentration, obtained from inhibition or displacement. With `CCN1CCN(c2nc3ccccc3c3c2cc(OC)c2ccccc23)CC1`, the inhibition constant (Ki) is 224 nM.
Consider `COc1cc2c(SCCN(C)C)nc3ccccc3c2c2ccccc12`, for which the affinity, expressed as Ki, was 10000 nM.
Next, `CN1CCN(c2nc3ccccc3c3c2CCCC3)CC1`: 0.0977 nM.
Next, `c1ccc2c(c1)ccc1c(N3CCNCC3)nc3ccccc3c12`: 132 nM; `CN1CCN(c2nc3ccccc3c3c2CSCC3)CC1`: 0.398 nM; `CCc1c(C)c(N2CCN(C)CC2)nc2ccccc12`: 0.537 nM.
The figure for `CN(C)CCSc1nc2ccccc2c2c1ccc1ccccc12` is 10000 nM.
For `CN(C)CCSc1nc2ccccc2c2c1COc1ccccc1-2`, the Ki is 10000 nM.
The figure for `CN1CCN(c2nc3ccccc3c3c2CN(C)CC3)CC1` is 3.16 nM; for `CN1CCN(c2nc3ccccc3c3c2CCC3)CC1` it is 0.0708 nM.
With `CN(C)CCSc1nc2ccccc2c2c1CCc1ccccc1-2`, the Ki is 10000 nM. This lies in the double-digit micromolar range.
Compound `c1ccc2c3c(c(N4CCNCC4)nc2c1)CCCC3` had a Ki of 0.1 nM.
